Patent US11649222B2, “Compounds” (UNIVERSITETET I OSLO, priority 2016, dated 2023)
Where two headings read alike, the source gives them in different places.

Experiments:
Format in all cases: cell-based
E. coli AMA323 (VIM-4) = assay: Checkerboard MIC, Example 26 and meropenem; conditions: for MIC: Escherichia coli
Protocol: (§1) A checkerboard MIC assay was using the broth dilution method according to CLSI guidelines. […] Dilutions to 4 mg/ml was performed by adding+4.75 ml sterile saline to 0.25 ml of the stock solution, and dilutions to 512 μg/ml was performed by adding 10.9 ml MH-broth to the 4 mg/ml solution. Inoculums of bacterial strains as described in Table 4 were prepared by suspending fresh overnight colonies from 5% horse blood agar were to a turbidity of 0.5 McFarland and further diluted to 1×10^6 CFU/ml in MH-broth. Aliquots of 50 μl of MH-broth were added to each well of polystyrene microtiter plates. […] The plates were incubated at 35° C., 16-20 hours.

E. coli 50739822 (NDM-1) = assay: Checkerboard MIC, Example 26 and meropenem; conditions: for MIC: Escherichia coli
Protocol: as §1

[1] = system: K. pneumonia K46-62 (VIM-1); assay: Checkerboard MIC, Example 26 and meropenem; conditions: for MIC: Klebsiella pneumoniae
Protocol: as §1

[2] = system: K. pneumonia K66-45 (NDM-1); assay: Checkerboard MIC, Example 26 and meropenem; conditions: for MIC: Klebsiella pneumoniae
Protocol: as §1

[3] = system: K. pneumonia K45-67 (VIM-1); assay: Checkerboard MIC, Example 26 and meropenem; conditions: for MIC: Klebsiella pneumoniae
Protocol: as §1

E. coli 50921466 (VIM-1) = assay: Checkerboard MIC, Example 26 and meropenem; conditions: for MIC: Escherichia coli
Protocol: as §1

[4] = system: K. pneumonia 50825040 (NDM-1); assay: Checkerboard MIC, Example 26 and meropenem; conditions: for MIC: Klebsiella pneumoniae
Protocol: as §1

E. coli 50676002 (NDM-1) = assay: Checkerboard MIC, Example 26 and meropenem; conditions: for MIC: Escherichia coli
Protocol: as §1

[5] = system: K. pneumonia 50752501 (NDM-1); assay: Checkerboard MIC, Example 26 and meropenem; conditions: for MIC: Klebsiella pneumoniae
Protocol: as §1

[6] = system: K. pneumonia 50877064 (NDM-1); assay: Checkerboard MIC, Example 26 and meropenem; conditions: for MIC: Klebsiella pneumoniae
Protocol: as §1

[7] = system: K. pneumonia 50690310 (NDM-1); assay: Checkerboard MIC, Example 26 and meropenem; conditions: for MIC: Klebsiella pneumoniae
Protocol: as §1

E. coli AMA1563 (NDM-5) = assay: Checkerboard MIC, Example 26 and meropenem; conditions: for MIC: Escherichia coli
Protocol: as §1

[8] = system: K. pneumonia 50627996 (NDM-1); assay: Checkerboard MIC, Example 26 and meropenem; conditions: for MIC: Klebsiella pneumoniae
Protocol: as §1

[9] = system: K. pneumonia 50923744 (VIM); assay: Checkerboard MIC, Example 26 and meropenem; conditions: for MIC: Klebsiella pneumoniae
Protocol: as §1

E. coli AMA817 (NDM-1) = assay: Checkerboard MIC, Example 26 and meropenem; conditions: for MIC: Escherichia coli
Protocol: as §1

K. pneumoniae K66-45 = system: K. pneumoniae K66-45
Protocol: After plating and grown overnight at 37° C., only single colonies, ignoring any touching the edges of the plate, were counted.
10^9 CFU K66-45 (Mueller-Hinton broth, no selection) was plated and grown overnight, 37° C. Only single colonies, ignoring any touching the edges of the plate, were counted.

human hepG2 cells = assay: In vitro toxicity in human hepG2 cells (AlamarBlue viability); conditions: for IC50: human hepG2 cells
Procedure, shortened: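 HepG2 cells at 20,000/well adhered overnight, then were exposed to compounds at 1 to 1×10^−6 mM (DMSO ≤1%) for 24 h at 37 °C. Viability was read with AlamarBlue (10% final) after a further 4 h at 37 °C.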

E. coli 50639799 (VIM-1) = assay: Microbroth dilution MIC of meropenem with/without inhibitor
Protocol: (§2) • Plate bacterial strain(s) on appropriate media: • Gram-negative bacteria with ESBLs or carbapenemases: green agar plates with 100 mg/L ampicillin • Gram-negative bacteria without β-lactamases: green agar plates • Gram-positive bacteria (Staphylococci and Enterococci): blood agar plates • Incubate o.n. at 37° C. Day 2: Prepare the Bacterial Inoculum: • Prepare a 0.5 McFarland suspension of bacteria in 0.85% NaCl. (Should be used within 15 min of preparation). • Dilute the 0.5 McFarland suspension 1:100 into MH broth. Check the inoculum by diluting the prepared bacterial suspension 1:100 (10 μl bacterial suspension+990 μl 0.85% NaCl). Plate 10 μl of the dilution on MH agar plates (×2). Incubate o.n. at 37° C., count the colonies and calculate the final CFU/ml inoculum in the plate by multiplying the average number of colonies with 10000 and divide by 2. The final inoculum should be between 3-7×10^5 CFU/ml. • Add 50 μl of the prepared bacterial suspension to each well in the microtiter plate except negative growth control. Preparation of Compounds/Antibiotics • Calculate the desired concentration-range and volume of the compounds/antibiotics in the assay. […] Dilute the stock solution in MH broth. Make subsequent 2-fold dilutions in MH broth of the desired concentrations if a concentration range is to be tested (remember the extra dilution factor in the assay plate). Always include extra volume for pipetting. Take into consideration stock solutions that are made in buffers that have an effect on bacterial growth (e.g. DMSO).
(§3) This experimental design was used for the results in Tables 2-6 below.

E. coli K71-77 (NDM-1) = assay: as above
Protocol: as §2, §3

[10] = system: K. pneumoniae A3-81 (VIM-1); assay: as above
Protocol: as §2, §3

[11] = read-out: MIC alone, Example 26

CN(C[C@H](O)[C@@H](O)[C@H](O)[C@H](O)CO)C(=O)c1ccc(CN(Cc2ccccn2)Cc2ccccn2)nc1 [Example 26, 6-((bis(pyridin-2-ylmethyl)amino)methyl)-N-methyl-N-((2S,3R,4R,5R)-2,3,4,5,6-pentahydroxyhexyl)nicotinamide]
MIC (E. coli AMA323 (VIM-4); [11]): > 400 µg/mL | MIC in combination, Example 26 (E. coli AMA323 (VIM-4); with meropenem): 12.5 µg/mL | MIC (E. coli 50739822 (NDM-1); [11]): > 400 µg/mL | MIC in combination, Example 26 (E. coli 50739822 (NDM-1); with meropenem): 12.5 µg/mL | MIC [1, 11]: > 400 µg/mL | MIC in combination, Example 26 ([1]; with meropenem): 12.5 µg/mL | MIC [2, 11]: > 400 µg/mL | MIC in combination, Example 26 ([2]; with meropenem): 12.5 µg/mL | MIC [3, 11]: > 400 µg/mL | MIC in combination, Example 26 ([3]; with meropenem): 12.5 µg/mL | MIC (E. coli 50921466 (VIM-1); [11]): > 400 µg/mL | MIC in combination, Example 26 (E. coli 50921466 (VIM-1); with meropenem): 12.5 µg/mL | MIC [4, 11]: > 400 µg/mL | MIC in combination, Example 26 ([4]; with meropenem): 12.5 µg/mL | MIC (E. coli 50676002 (NDM-1); [11]): > 400 µg/mL | MIC in combination, Example 26 (E. coli 50676002 (NDM-1); with meropenem): 12.5 µg/mL | MIC [5, 11]: > 400 µg/mL | MIC in combination, Example 26 ([5]; with meropenem): 25 µg/mL | MIC [6, 11]: > 400 µg/mL | MIC in combination, Example 26 ([6]; with meropenem): 12.5 µg/mL | MIC [7, 11]: > 400 µg/mL | MIC in combination, Example 26 ([7]; with meropenem): 12.5 µg/mL | MIC (E. coli AMA1563 (NDM-5); [11]): > 400 µg/mL | MIC in combination, Example 26 (E. coli AMA1563 (NDM-5); with meropenem): 25 µg/mL | MIC [8, 11]: > 400 µg/mL | MIC in combination, Example 26 ([8]; with meropenem): 12.5 µg/mL | MIC [9, 11]: > 400 µg/mL | MIC in combination, Example 26 ([9]; with meropenem): 12.5 µg/mL | MIC (E. coli AMA817 (NDM-1); [11]): > 400 µg/mL | MIC in combination, Example 26 (E. coli AMA817 (NDM-1); with meropenem): 12.5 µg/mL | Resistance/mutant frequency (number of colonies) (K. pneumoniae K66-45; Example 26 15 mg/L, 8 mg/L MEM): n.c. | Resistance/mutant frequency (number of colonies) (K. pneumoniae K66-45; Example 26 25 mg/L, 4 mg/L MEM): n.c. | Resistance/mutant frequency (number of colonies) (K. pneumoniae K66-45; Example 26 25 mg/L, 8 mg/L MEM): n.c. | Resistance/mutant frequency (number of colonies) (K. pneumoniae K66-45; Example 26 50 mg/L, 4 mg/L MEM): n.c. | Resistance/mutant frequency (number of colonies) (K. pneumoniae K66-45; Example 26 50 mg/L, 8 mg/L MEM): n.c. | EC50 in hepG2 cells (human hepG2 cells; hepG2 cells): non-toxic | IC50 (human hepG2 cells; 24 hours, AlamarBlue, 8 replicates, read-out: IC50): > 1000 µM | IC50 (human hepG2 cells; read-out: IC50h): ≥ 116 µM

C[C@@H](O)[C@H]1C(=O)N2C(C(=O)O)=C(S[C@@H]3CN[C@H](C(=O)N(C)C)C3)[C@H](C)[C@H]12 [meropenem, reference compound]
Meropenem activity without inhibitor (E. coli 50639799 (VIM-1)): 8 to 32 mg/L | Meropenem activity without inhibitor (E. coli K71-77 (NDM-1)): 1 to 8 mg/L | Meropenem activity without inhibitor [10]: 64 to 256 mg/L | MIC (E. coli AMA323 (VIM-4); read-out: MIC alone, Meropenem): 8 µg/mL | MIC in combination, Meropenem (E. coli AMA323 (VIM-4); with Example 26): ≤0.0625 µg/mL | MIC (E. coli 50739822 (NDM-1); read-out: MIC alone, Meropenem): 32 µg/mL | MIC in combination, Meropenem (E. coli 50739822 (NDM-1); with Example 26): ≤0.0625 µg/mL | MIC ([1]; read-out: MIC alone, Meropenem): 32 µg/mL | MIC in combination, Meropenem ([1]; with Example 26): ≤0.0625 µg/mL | MIC ([2]; read-out: MIC alone, Meropenem): 64 µg/mL | MIC in combination, Meropenem ([2]; with Example 26): ≤0.0625 µg/mL | MIC ([3]; read-out: MIC alone, Meropenem): 32 µg/mL | MIC in combination, Meropenem ([3]; with Example 26): ≤0.0625 µg/mL | MIC (E. coli 50921466 (VIM-1); read-out: MIC alone, Meropenem): 2 µg/mL | MIC in combination, Meropenem (E. coli 50921466 (VIM-1); with Example 26): ≤0.0625 µg/mL | MIC ([4]; read-out: MIC alone, Meropenem): 64 µg/mL | MIC in combination, Meropenem ([4]; with Example 26): ≤0.0625 µg/mL | MIC (E. coli 50676002 (NDM-1); read-out: MIC alone, Meropenem): 32 µg/mL | MIC in combination, Meropenem (E. coli 50676002 (NDM-1); with Example 26): ≤0.0625 µg/mL | MIC ([5]; read-out: MIC alone, Meropenem): 64 µg/mL | MIC in combination, Meropenem ([5]; with Example 26): ≤0.0625 µg/mL | MIC ([6]; read-out: MIC alone, Meropenem): 64 µg/mL | MIC in combination, Meropenem ([6]; with Example 26): ≤0.0625 µg/mL | MIC ([7]; read-out: MIC alone, Meropenem): 16 µg/mL | MIC in combination, Meropenem ([7]; with Example 26): ≤0.0625 µg/mL | MIC (E. coli AMA1563 (NDM-5); read-out: MIC alone, Meropenem): 64 µg/mL | MIC in combination, Meropenem (E. coli AMA1563 (NDM-5); with Example 26): ≤0.0625 µg/mL | MIC ([8]; read-out: MIC alone, Meropenem): 64 µg/mL | MIC in combination, Meropenem ([8]; with Example 26): 0.125 µg/mL | MIC ([9]; read-out: MIC alone, Meropenem): 2 µg/mL | MIC in combination, Meropenem ([9]; with Example 26): ≤0.0625 µg/mL | MIC (E. coli AMA817 (NDM-1); read-out: MIC alone, Meropenem): 32 µg/mL | MIC in combination, Meropenem (E. coli AMA817 (NDM-1); with Example 26): ≤0.0625 µg/mL
